Measured values reported in paper PMC6272903, “Synthesis and Structure-Activity Relationship Analysis of 5-HT7 Receptor Antagonists: Piperazin-1-yl Substituted Unfused Heterobiaryls” (Molecules, 2016).

Target: T1, human 5-HT7b receptors (Homo sapiens, UniProt P34969)
T1 construct: expressed in transfected cells; host or cells: HEK293
Experiment: 5-HT7 competition radioligand binding assay ([3H]5-CT)
Settings: HEK293 cells overexpressing human 5-HT7b receptors, at least two independent experiments in triplicate
Description: Novel scaffold endowed with 5-HT7R activity was identified by screening of the in-house compound library in a single compound concentration of 1 µM in a competition radioligand binding assay using [^3H]5-CT and HEK293 cells overexpressing the human 5-HT7b receptors.

T1 sequence (P34969 1-432): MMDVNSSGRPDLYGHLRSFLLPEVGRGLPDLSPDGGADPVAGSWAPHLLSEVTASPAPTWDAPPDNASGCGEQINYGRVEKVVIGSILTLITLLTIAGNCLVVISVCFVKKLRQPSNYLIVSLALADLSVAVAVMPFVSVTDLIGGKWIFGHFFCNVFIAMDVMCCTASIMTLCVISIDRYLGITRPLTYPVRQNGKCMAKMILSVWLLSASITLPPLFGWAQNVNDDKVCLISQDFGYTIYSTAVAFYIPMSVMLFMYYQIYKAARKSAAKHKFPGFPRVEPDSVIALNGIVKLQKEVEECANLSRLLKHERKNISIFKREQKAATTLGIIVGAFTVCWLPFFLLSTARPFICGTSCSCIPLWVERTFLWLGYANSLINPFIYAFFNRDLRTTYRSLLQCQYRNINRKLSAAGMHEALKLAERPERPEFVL

Compound	Ki ± S.D. 5-HT7 binding affinity
c1cc(-c2ccoc2)nc(N2CCCCC2)n1 [Compound 43, 4-(3-Furyl)-2-(piperidin-1-yl)pyrimidine]	no affinity

Same assay, conditions: HEK293 cells overexpressing human 5-HT7b receptors, at least two independent experiments in triplicate, read-out: Ki ± S.D. 5-HT7 binding affinity

Compound	Ki [nM]
Cc1cc(-c2ccco2)cc(N2CCN(C)CC2)c1 [Compound 64, 1-[3-(2-Furyl)-5-methylphenyl]-4-methylpiperazine]	312 ± 25
c1cc(-c2ccoc2)nc(N2CCCCC2)n1 [Compound 43, 4-(3-Furyl)-2-(piperidin-1-yl)pyrimidine]	> 10000
CCCCc1cc(-c2ccoc2)cc(N2CCN(C)CC2)c1 [Compound 62, 1-[3-n-Butyl-5-(3-furyl)phenyl]-4-methylpiperazine]	106 ± 9
CCCCc1cc(-c2ccco2)cc(N2CCN(C)CC2)c1 [Compound 65, 1-[3-n-Butyl-5-(2-furyl)phenyl]-4-methylpiperazine]	743 ± 66
CN1CCN(c2nccc(-c3nccs3)n2)CC1 [Compound 40, 2-(4-Methylpiperazin-1-yl)-4-(thiazol-2-yl)pyrimidine]	> 10000
CN1CCN(c2nccc(-c3cc4ccccc4s3)n2)CC1 [Compound 37, 4-(Benzothiophen-2-yl)-2-(4-methylpiperazin-1-yl)pyrimidine]	5280 ± 820
Cc1cc(-c2ccoc2)cc(N2CCN(C)CC2)n1 [Compound 54, 4-(3-Furyl)-2-methyl-6-(4-methylpiperazin-1-yl)pyridine]	8 ± 1
CN(C)CCc1nc(N2CCN(C)CC2)nc2ccccc12 [Compound 50]	> 10000
CN1CCN(c2nccc(-c3cccc(O)c3)n2)CC1 [Compound 34, 4-(3-Hydroxyphenyl)-2-(4-methylpiperazin-1-yl)pyrimidine]	> 10000
CN1CCN(c2nccc(-n3ccnc3)n2)CC1 [Compound 41, (1H-Imidazol-1-yl)-2-(4-methylpiperazin-1-yl)pyrimidine]	1980 ± 275
CN1CCN(c2cccc(-c3ccsc3)c2)CC1 [Compound 66, 1-Methyl-4-[3-(3-thienyl)phenyl]piperazine]	342 ± 51
Cc1cc(-c2ccnc(N3CCN(C)CC3)n2)co1 [Compound 24, 4-(5-Methyl-3-furyl)-2-(4-methylpiperazin-1-yl)pyrimidine]	462 ± 54
c1cc(-c2ccoc2)nc(NCCN2CCOCC2)n1 [Compound 45, 4-(3-Furyl)-N-[2-(morpholin-4-yl)ethyl]pyrimidin-2-amine]	2460 ± 343
CN1CCN(c2nccc(-c3ccoc3)n2)CC1 [Compound 2, 4-(3-Furyl)-2-(4-methylpiperazin-1-yl)pyrimidine]	7.2 ± 1.4
CN1CCN(c2nccc(-c3cc4ccccc4o3)n2)CC1 [Compound 36, 4-(Benzofuran-2-yl)-2-(4-methylpiperazin-1-yl)pyrimidine]	7460 ± 1230
c1cc(-c2ccoc2)nc(NCCCc2ncc[nH]2)n1 [Compound 46, 4-(3-Furyl)-N-[3-(1H-imidazol-2-yl)propyl]pyrimidin-2-amine]	1280 ± 187
Cc1ccc(-c2ccnc(N3CCN(C)CC3)n2)o1 [Compound 29, 4-(5-Methyl-2-furyl)-2-(4-methylpiperazin-1-yl)pyrimidine]	4230 ± 680
CCCCCCc1cc(-c2ccoc2)nc(N2CCN(C)CC2)n1 [Compound 14, 4-(3-Furyl)-6-n-hexyl-2-(4-methylpiperazin-1-yl)pyrimidine]	3.3 ± 0.5
CN1CCN(c2cccc(-c3ccsc3)n2)CC1 [Compound 58, 2-(4-Methylpiperazin-1-yl)-6-(3-thienyl)pyridine]	79 ± 14

Compound	Ki [nM]
CN1CCN(c2nc(-c3ccoc3)cc(-c3ccoc3)n2)CC1 [Compound 18, 4,6-Bis(3-furyl)-2-(4-methylpiperazin-1-yl)pyrimidine]	22 ± 2
Cc1cc(-c2ccsc2)cc(N2CCN(C)CC2)c1 [Compound 67, 1-Methyl-4-[3-methyl-5-(3-thienyl)phenyl]piperazine]	47 ± 6
CN1CCN(c2nc(-c3ccoc3)cc(C(F)(F)F)n2)CC1 [Compound 16, 4-(3-Furyl)-2-(4-methylpiperazin-1-yl)-6-(trifluoromethyl)pyrimidine]	8.3 ± 1.7
CN1CCN(c2cc(-c3ccco3)ccn2)CC1 [Compound 52, 4-(2-Furyl)-2-(4-methylpiperazin-1-yl)pyridine]	307 ± 42
CN1CCN(c2cccc(-c3ccoc3)c2)CC1 [Compound 60, 1-[3-(3-Furyl)phenyl]-4-methylpiperazine]	31 ± 4
CCCCCCc1cc(-c2coc(C)c2)nc(N2CCN(C)CC2)n1 [Compound 25, 4-n-Hexyl-6-(5-methyl-3-furyl)-2-(4-methylpiperazin-1-yl)pyrimidine]	12 ± 2
CCCc1cnc(N2CCN(C)CC2)nc1-c1ccoc1 [Compound 21, 4-(3-Furyl)-2-(4-methylpiperazino)-5-propylpyrimidine]	1330 ± 232
c1ccc(CCCN2CCN(c3nccc(-c4ccoc4)n3)CC2)cc1 [Compound 7]	1.6 ± 0.2
CCc1cc(-c2ccco2)nc(N2CCN(C)CC2)n1 [Compound 27, 4-Ethyl-6-(2-furyl)-2-(4-methylpiperazin-1-yl)pyrimidine]	380 ± 44
CCCCc1cc(-c2ccsc2)cc(N2CCN(C)CC2)c1 [Compound 68, 1-[3-n-Butyl-5-(3-thienyl)phenyl]-4-methylpiperazine]	263 ± 19
CN1CCN(c2nccc(-c3ccc(O)cc3)n2)CC1 [Compound 35, 4-(4-Hydroxyphenyl)-2-(4-methylpiperazin-1-yl)pyrimidine]	> 10000
CCN1CCN(c2nccc(-c3ccoc3)n2)CC1 [Compound 3, 2-(4-Ethylpiperazin-1-yl)-4-(3-furyl)pyrimidine]	10 ± 1
CN1CCN(c2nc(C#CC3=CCCCC3)cc(-c3ccoc3)n2)CC1 [Compound 17, 4-(Cyclohexenylethynyl)-6-(3-furyl)-2-(4-methylpiperazin-1-yl)pyrimidine]	18 ± 3
CN1CCN(c2nccc(-c3ccsc3)n2)CC1 [Compound 30, 2-(Methylpiperazin-1-yl)-4-(3-thienyl)pyrimidine]	83 ± 9
c1cc(-c2ccoc2)nc(N2CC[N+]3(CCOCC3)CC2)n1 [Compound 47, 4-[4-(3-Furyl)pyrimidin-2-yl]piperazine-1-spiro-1-morpholinium iodide]	299 ± 42
CN1CCN(c2cccc(-c3ccco3)c2)CC1 [Compound 63, 1-[3-(2-Furyl)phenyl]-4-methylpiperazine]	914 ± 121
Cc1cc(-c2cccs2)cc(N2CCN(C)CC2)n1 [Compound 56, 2-Methyl-6-(4-methylpiperazin-1-yl)-4-(2-thienyl)pyridine]	117 ± 12
c1cc(-c2ccoc2)nc(N2CCNCC2)n1 [Compound 1, 4-(3-Furyl)-2-(piperazin-1-yl)pyrimidine]	9 ± 2
c1ccc(CN2CCN(c3nccc(-c4ccoc4)n3)CC2)cc1 [Compound 5, 2-(4-Benzylpiperazin-1-yl)-4-(3-furyl)pyrimidine]	25 ± 3

Compound	Ki [nM]
CCC(C)c1cc(-c2ccoc2)nc(N2CCN(C)CC2)n1 (centres unmarked) [Compound 15, 4-sec-Butyl-6-(3-furyl)-2-(4-methylpiperazin-1-yl)pyrimidine]	2.7 ± 0.5
CN1CCN(c2cc(-c3ccoc3)ccn2)CC1 [Compound 51, 4-(3-Furyl)-2-(4-methylpiperazin-1-yl)pyridine]	17 ± 2
CN1CCN(c2nccc(-c3cccnc3)n2)CC1 [Compound 39, 2-(4-Methylpiperazin-1-yl)-4-(pyridin-3-yl)pyrimidine]	780 ± 94
CN1CCN(c2nc(-c3ccoc3)c3ccccc3n2)CC1 [Compound 48, 4-(3-Furyl)-2-(methylpiperazin-1-yl)quinazoline]	1910 ± 235
CCCCc1cc(-c2ccsc2)nc(N2CCN(C)CC2)n1 [Compound 31, 4-n-Butyl-2-(methylpiperazin-1-yl)-6-(3-thienyl)pyrimidine]	15 ± 3
CCCN1CCN(c2nccc(-c3ccoc3)n2)CC1 [Compound 4, 4-(3-Furyl)-2-(4-propylpiperazin-1-yl)pyrimidine]	5.3 ± 0.9
4-(3-Furyl)-2,4-bis(4-methylpiperazin-1-yl)pyrimidine [Compound 20]	> 10000
CN1CCCN(c2nccc(-c3ccoc3)n2)CC1 [Compound 42, 4-(3-Furyl)-2-(4-methylhomopiperazin-1-yl)pyrimidine]	148 ± 17
CN1CCN(c2nccc(-c3ccco3)n2)CC1 [Compound 26, 4-(2-Furyl)-2-(4-methylpiperazin-1-yl)pyrimidine]	1020 ± 96
CN1CCN(c2nccc(-c3cccs3)n2)CC1 [Compound 32, 2-(Methylpiperazin-1-yl)-4-(2-thienyl)pyrimidine]	480 ± 65
CN1CCN(c2cc(-c3cccs3)ccn2)CC1 [Compound 53, 2-(4-Methylpiperazin-1-yl)-4-(2-thienyl)pyridine]	396 ± 55
Cc1cc(-c2ccoc2)cc(N2CCN(C)CC2)c1 [Compound 61, 1-[3-(3-Furyl)-5-methylphenyl]-4-methylpiperazine]	37 ± 3
CCCCc1cc(-c2ccco2)nc(N2CCN(C)CC2)n1 [Compound 28, 4-n-Butyl-6-(2-furyl)-2-(4-methylpiperazin-1-yl)pyrimidine]	450 ± 63
Cc1cc(-c2cccs2)cc(N2CCN(C)CC2)c1 [Compound 70, 1-Methyl-4-[3-methyl-5-(2-thienyl)phenyl]piperazine]	297 ± 42
CN1CCN(c2nccc(-c3cc4ccccc4n3C)n2)CC1 [Compound 38, 4-(1-Methylindol-2-yl)-2-(4-methylpiperazin-1-yl)pyrimidine]	1530 ± 125
CN1CCN(c2nc(-c3ccoc3)cc(N(C)C)n2)CC1 [Compound 19, 4-Dimethylamino-6-(3-furyl)-2-(4-methylpiperazin-1-yl)pyrimidine]	> 10000
CN1CCN(c2nc(N3CCN(C)CC3)c3ccccc3n2)CC1 [Compound 49, 2,4-bis(4-Methylpiperazin-1-yl)quinazoline]	7540 ± 1140
CN1CCN(c2cccc(-c3ccco3)n2)CC1 [Compound 59, 2-(2-Furyl)-6-(4-methylpiperazin-1-yl)pyridine]	1140 ± 154

Same assay, conditions: single compound concentration of 1 µM, HEK293 cells, read-out: inhibition in library screening

Compound	inhibition at 1 µM [%]
CN1CCN(c2nccc(-c3ccoc3)n2)CC1 [Compound 2, 4-(3-Furyl)-2-(4-methylpiperazin-1-yl)pyrimidine]	> 60
CN1CCN(c2nc(-c3ccoc3)cc(-c3ccoc3)n2)CC1 [Compound 18, 4,6-Bis(3-furyl)-2-(4-methylpiperazin-1-yl)pyrimidine]	> 60
